Test results as given in article PMC6508583 (Journal of the American Chemical Society, 2019).
Values after ≈ are worked out from the molar mass of the structure shown. Read-outs that look alike come from different tables or passages of the source.

Tests used:
[1] = tested on: wild-type bacterial ribosome; experiment: Cell-free translation assay, wild-type bacterial ribosome; assay type: biochemical; conditions: in vitro translation inhibition
[2] = tested on: Mit13 hybrid ribosome (decoding A site of the human mitochondrial ribosome); assay type: biochemical; conditions: for Selectivity Mit 13: Mit13 over wt bacterial ribosome; for IC50 Mit13: in vitro translation inhibition, Mit13 hybrid ribosome
[3] = tested on: A1555G mutant mitochondrial hybrid ribosome; assay type: biochemical, human; conditions: for Selectivity A1555G: A1555G over wt bacterial ribosome; for IC50 A1555G: in vitro translation inhibition, A1555G mutant mitochondrial hybrid ribosome
[4] = tested on: Cyt14 hybrid ribosome (decoding A site of the human cytoplasmic ribosome); assay type: biochemical; conditions: for Selectivity Cyt14: Cyt14 over wt bacterial ribosome; for IC50 Cyt 14: in vitro translation inhibition, Cyt14 hybrid ribosome
MRSA = experiment: Antibacterial activity against reference strains: MRSA; assay type: cell-based; conditions: for Antibacterial activity (MIC) MRSA AG038: strain AG038; for Antibacterial activity (MIC) MRSA AG042: strain AG042 carries the AAC(6)’, ANT(4’,4’’) and APH(3’) genes; for MIC: Staphylococcus aureus, MRSA
K. pneumoniae = experiment: Antibacterial activity against reference strains: K. pneumoniae; assay type: cell-based; conditions: strain AG215
E. cloacae = experiment: Antibacterial activity against reference strains: E. cloacae; assay type: cell-based; conditions: for Antibacterial activity (MIC) E. cloacae AG290: strain AG290
A. baumannii = experiment: Antibacterial activity against reference strains: A. baumannii; assay type: cell-based; conditions: strain AG225
E. coli = experiment: Antibacterial activity against reference strains: E. coli; conditions: for Antibacterial activity (MIC) E. coli AG001: strain AG001; for Antibacterial activity (MIC) E. coli AG003: strain AG003 carries the AAC(3) gene; for MIC: Escherichia coli
P. aeruginosa = experiment: Antibacterial activity against reference strains: P. aeruginosa; conditions: for Antibacterial activity (MIC) P. aeruginosa AG031: strain AG031 carries the APH(3’) gene
[5] = tested on: E. coli carrying specific resistance determinants; experiment: Activity against wild-type and engineered E. coli carrying specific AMEs or RMTs; assay type: cell-based; conditions: Escherichia coli
[6] = tested on: E. coli clinical isolates carrying two or more resistance determinants; experiment: Activity against E. coli clinical isolates with multiple resistance determinants; assay type: cell-based; conditions: Escherichia coli
[7] = tested on: E. cloacae clinical isolates carrying two or more resistance determinants; assay type: cell-based; conditions: Enterobacter cloacae

## NCC1OC(OC2C(CO)OC(OC3C(O)C(N)CC(N)C3OC3OC(CO)C(CC(O)CO)C(O)C3N)C2O)C(N)C(O)C1O (centres unmarked) [Compound 37]
[1]
  IC50 wt: 0.10 µg/mL (≈ 0.148 µM)
[2]
  Selectivity Mit 13: 320
  IC50 Mit13: 32 µg/mL (≈ 47.5 µM)
[3]
  Selectivity A1555G: 330
  IC50 A1555G: 33 µg/mL (≈ 49 µM)
[4]
  Selectivity Cyt14: 590
  IC50 Cyt 14: 59 µg/mL (≈ 87.6 µM)
MRSA
  Antibacterial activity (MIC) MRSA AG038: 4 µg/mL
  Antibacterial activity (MIC) MRSA AG042: 8 µg/mL
K. pneumoniae
  Antibacterial activity (MIC) K. pneumoniae AG215: 8 µg/mL
E. cloacae
  Antibacterial activity (MIC) E. cloacae AG290: 4 to 8 µg/mL
A. baumannii
  Antibacterial activity (MIC) A. baumannii AG225: 8 µg/mL
E. coli
  Antibacterial activity (MIC) E. coli AG001: 16 µg/mL
  Antibacterial activity (MIC) E. coli AG003: 8 µg/mL
P. aeruginosa
  Antibacterial activity (MIC) P. aeruginosa AG031: 16 to 32 µg/mL
P. aeruginosa; strain AG220 carries the APH(3’) gene
  Antibacterial activity (MIC) P. aeruginosa AG220: 16 µg/mL

## CCC1C(CO)OC(OC2C(N)CC(N)C(O)C2OC2OC(CO)C(OC3OC(CN)C(O)C(O)C3N)C2O)C(N)C1O (centres unmarked) [Compound 35]
[1]
  IC50 wt: 0.06 µg/mL (≈ 0.0956 µM)
[2]
  Selectivity Mit 13: 3033
  IC50 Mit13: 182 µg/mL (≈ 290 µM)
[3]
  Selectivity A1555G: 2150
  IC50 A1555G: 129 µg/mL (≈ 206 µM)
[4]
  Selectivity Cyt14: 1867
  IC50 Cyt 14: 112 µg/mL (≈ 178 µM)
MRSA
  Antibacterial activity (MIC) MRSA AG038: 8 µg/mL
  Antibacterial activity (MIC) MRSA AG042: 4 to 8 µg/mL
K. pneumoniae
  Antibacterial activity (MIC) K. pneumoniae AG215: 4 µg/mL
E. cloacae
  Antibacterial activity (MIC) E. cloacae AG290: 4 to 8 µg/mL
A. baumannii
  Antibacterial activity (MIC) A. baumannii AG225: 16 to 32 µg/mL
E. coli
  Antibacterial activity (MIC) E. coli AG001: 8 µg/mL
  Antibacterial activity (MIC) E. coli AG003: 8 µg/mL
P. aeruginosa
  Antibacterial activity (MIC) P. aeruginosa AG031: 64 to 128 µg/mL

## NCC[C@H](O)C(=O)N[C@@H]1C[C@H](N)[C@@H](O[C@H]2O[C@H](CN)[C@@H](O)[C@H](O)[C@H]2O)[C@H](O)[C@H]1O[C@H]1O[C@H](CO)[C@@H](O)[C@H](N)[C@H]1O [Amikacin]
[1]
  IC50 wt: 0.02 µg/mL (≈ 0.0342 µM)
[2]
  Selectivity Mit 13: 600
  IC50 Mit13: 12 µg/mL (≈ 20.5 µM)
[3]
  Selectivity A1555G: 21
  IC50 A1555G: 0.42 µg/mL (≈ 0.717 µM)
[4]
  Selectivity Cyt14: 4500
  IC50 Cyt 14: 90 µg/mL (≈ 154 µM)
MRSA; read-out: Antibacterial activity (MIC) MRSA AG038
  MIC: 4 µg/mL (≈ 6.83 µM)
MRSA; read-out: Antibacterial activity (MIC) MRSA AG042
  MIC: 16 to 32 µg/mL (≈ 27.3 to 54.6 µM)
E. cloacae; Enterobacter cloacae, read-out: Antibacterial activity (MIC) E. cloacae AG290
  MIC: 1 µg/mL (≈ 1.71 µM)
[5]; read-out: Activity (MIC) E. coli AG006
  MIC: 1 to 2 µg/mL (≈ 1.71 to 3.42 µM)
[5]; read-out: Activity (MIC) E. coli AG007
  MIC: 2 µg/mL (≈ 3.42 µM)
[5]; read-out: Activity (MIC) E. coli AG008
  MIC: 1 to 2 µg/mL (≈ 1.71 to 3.42 µM)
[5]; read-out: Activity (MIC) E. coli AG009
  MIC: 32 µg/mL (≈ 54.6 µM)
[5]; read-out: Activity (MIC) E. coli AG036
  MIC: 4 to 8 µg/mL (≈ 6.83 to 13.7 µM)
[5]; read-out: Activity (MIC) E. coli AG103
  MIC: > 128 µg/mL
[5]; read-out: Activity (MIC) E. coli AG105
  MIC: 2 µg/mL (≈ 3.42 µM)
[5]; read-out: Activity (MIC) E. coli AG166
  MIC: 2 µg/mL (≈ 3.42 µM)
[6]; read-out: Activity (MIC) E. coli isolate 201430298
  MIC: 8 µg/mL (≈ 13.7 µM)
[6]; read-out: Activity (MIC) E. coli isolate 201441114
  MIC: 64 µg/mL (≈ 109 µM)
[6]; read-out: Activity (MIC) E. coli isolate 2014251408
  MIC: 64 µg/mL (≈ 109 µM)
[6]; read-out: Activity (MIC) E. coli isolate 2014405344
  MIC: > 256 µg/mL
[7]; read-out: Activity (MIC) E. cloacae isolate 201333207
  MIC: 16 µg/mL (≈ 27.3 µM)
[7]; read-out: Activity (MIC) E. cloacae isolate 201385168
  MIC: > 256 µg/mL
[7]; read-out: Activity (MIC) E. cloacae isolate 201430601
  MIC: 8 µg/mL (≈ 13.7 µM)
[7]; read-out: Activity (MIC) E. cloacae isolate 201435487
  MIC: 4 µg/mL (≈ 6.83 µM)
E. coli; read-out: Antibacterial activity (MIC) E. coli AG001
  MIC: 2 µg/mL (≈ 3.42 µM)
E. coli; read-out: Antibacterial activity (MIC) E. coli AG003
  MIC: 2 µg/mL (≈ 3.42 µM)
